Calls of active or inactive are those of the source. The calls are words filed in the database; no cut-off is given here.
Experiments:
[1] = Clearance in mouse hepatocytes at 1 uM measured per million cells by ESI/LC-MS/MS analysis; format: ADME, cell-based, Hepatocyte; conditions: read-out: CLH
[2] = Oral bioavailability in CD-1 mouse at 20 mg/kg formulated as suspension in 0.5% methocel and 0.02% SLS in 50 mM citrate buffer measured for 24 hrs by reverse phase liquid chromatography coupled to mass spectrometry; format: ADME, organism-based; conditions: in vivo
[3] = Clearance in Beagle dog at 0.5 mg/kg, iv formulated as a solution in 10% PG:18% PEG400 in water or 5% NMP:95% (10% VitE TPGS in water) measured for 24 hrs by reverse phase liquid chromatography coupled to mass spectrometry; format: ADME, organism-based, Canis lupus familiaris; conditions: in vivo
[4] = system: Granta-519; test: Antitumor activity against human Granta-519 cells xenografted in NOD-SCID mouse assessed as decrease in tumor volume at 10 mg/kg, po qd for 7 days; format: functional, organism-based; conditions: time 7.0 day
[5] = Toxicity in BALB/c mouse assessed as increase in proportion of red blood cells in bone marrow at 10 mg/kg, po qd for 3 days; format: organism-based; conditions: in vivo, 72 h, time 3 day
[6] = Clearance in cynomolgus monkey at 0.5 mg/kg, iv formulated as a solution in 10% PG:18% PEG400 in water or 5% NMP:95% (10% VitE TPGS in water) measured for 24 hrs by reverse phase liquid chromatography coupled to mass spectrometry; format: ADME, organism-based, Macaca fascicularis; conditions: in vivo
[7] = Toxicity in NOD-SCID mouse xenografted with human Granta-519 cells assessed as reduction in early stage erythroblasts in bone marrow at 10 mg/kg, po qd for 1 day co-administered with PARP inhibitor, niraparib by flow cytometry; format: organism-based; conditions: in vivo, 24 h
[8] = Clearance in CD-1 mouse at 1 mg/kg, iv formulated as a solution in 10% PG:18% PEG400 in water or 5% NMP:95% (10% VitE TPGS in water) measured for 24 hrs by reverse phase liquid chromatography coupled to mass spectrometry; format: ADME, organism-based; conditions: in vivo
[9] = Clearance in human liver microsomes at 1 uM in presence of NADPH by ESI/LC-MS/MS analysis; format: ADME, Microsome; conditions: read-out: CLH
[10] = Clearance in rat liver microsomes at 1 uM in presence of NADPH by ESI/LC-MS/MS analysis; format: ADME, Microsome; conditions: read-out: CLH
[11] = Toxicity in BALB/c mouse assessed as early stage erythroblasts in bone marrow at 10 mg/kg, po qd for 3 days and measured at 2 days after treatment discontinuation by flow cytometry; format: organism-based; conditions: in vivo, 72 h, time 3 day
[12] = Toxicity in BALB/c mouse assessed as early stage erythroblasts in bone marrow at 10 mg/kg, po qd for 3 days and measured at 1 day after treatment discontinuation by flow cytometry; format: organism-based; conditions: in vivo, 72 h, time 3 day
[13] = Toxicity in NOD-SCID mouse xenografted with human Granta-519 cells assessed as red blood cells at 30 mg/kg, po qd for 3 days and 4 days off treatment and measured on day 14; format: organism-based; conditions: in vivo, 72 h, time 3 day
[14] = Toxicity in BALB/c mouse assessed as decrease in proportion of reticulocytes in bone marrow at 10 mg/kg, po qd for 3 days; format: organism-based; conditions: in vivo, 72 h, time 3 day
[15] = Toxicity in BALB/c mouse assessed as reduction in total viable cell counts in femur at 10 mg/kg, po qd for 3 days; format: organism-based; conditions: in vivo, 72 h, time 3 day
[16] = Toxicity in NOD-SCID mouse xenografted with human Granta-519 cells assessed as reduction in late stage erythroblasts at 10 mg/kg, po qd for 1 day by flow cytometry; format: organism-based; conditions: in vivo, 24 h
[17] = biological target: T1, Serine/threonine-protein kinase ATR (Homo sapiens, UniProt Q13535); test: Inhibition of ATR in human HeLa S3 cells assessed as decrease in CHK1 phosphorylation at Ser345 residue pretreated for 20 mins followed by gemcitabine stimulation for 3.5 to 4 hrs by AlphaScreen SurFire assay; format: cell-based
T1 sequence (Q13535 whole entry): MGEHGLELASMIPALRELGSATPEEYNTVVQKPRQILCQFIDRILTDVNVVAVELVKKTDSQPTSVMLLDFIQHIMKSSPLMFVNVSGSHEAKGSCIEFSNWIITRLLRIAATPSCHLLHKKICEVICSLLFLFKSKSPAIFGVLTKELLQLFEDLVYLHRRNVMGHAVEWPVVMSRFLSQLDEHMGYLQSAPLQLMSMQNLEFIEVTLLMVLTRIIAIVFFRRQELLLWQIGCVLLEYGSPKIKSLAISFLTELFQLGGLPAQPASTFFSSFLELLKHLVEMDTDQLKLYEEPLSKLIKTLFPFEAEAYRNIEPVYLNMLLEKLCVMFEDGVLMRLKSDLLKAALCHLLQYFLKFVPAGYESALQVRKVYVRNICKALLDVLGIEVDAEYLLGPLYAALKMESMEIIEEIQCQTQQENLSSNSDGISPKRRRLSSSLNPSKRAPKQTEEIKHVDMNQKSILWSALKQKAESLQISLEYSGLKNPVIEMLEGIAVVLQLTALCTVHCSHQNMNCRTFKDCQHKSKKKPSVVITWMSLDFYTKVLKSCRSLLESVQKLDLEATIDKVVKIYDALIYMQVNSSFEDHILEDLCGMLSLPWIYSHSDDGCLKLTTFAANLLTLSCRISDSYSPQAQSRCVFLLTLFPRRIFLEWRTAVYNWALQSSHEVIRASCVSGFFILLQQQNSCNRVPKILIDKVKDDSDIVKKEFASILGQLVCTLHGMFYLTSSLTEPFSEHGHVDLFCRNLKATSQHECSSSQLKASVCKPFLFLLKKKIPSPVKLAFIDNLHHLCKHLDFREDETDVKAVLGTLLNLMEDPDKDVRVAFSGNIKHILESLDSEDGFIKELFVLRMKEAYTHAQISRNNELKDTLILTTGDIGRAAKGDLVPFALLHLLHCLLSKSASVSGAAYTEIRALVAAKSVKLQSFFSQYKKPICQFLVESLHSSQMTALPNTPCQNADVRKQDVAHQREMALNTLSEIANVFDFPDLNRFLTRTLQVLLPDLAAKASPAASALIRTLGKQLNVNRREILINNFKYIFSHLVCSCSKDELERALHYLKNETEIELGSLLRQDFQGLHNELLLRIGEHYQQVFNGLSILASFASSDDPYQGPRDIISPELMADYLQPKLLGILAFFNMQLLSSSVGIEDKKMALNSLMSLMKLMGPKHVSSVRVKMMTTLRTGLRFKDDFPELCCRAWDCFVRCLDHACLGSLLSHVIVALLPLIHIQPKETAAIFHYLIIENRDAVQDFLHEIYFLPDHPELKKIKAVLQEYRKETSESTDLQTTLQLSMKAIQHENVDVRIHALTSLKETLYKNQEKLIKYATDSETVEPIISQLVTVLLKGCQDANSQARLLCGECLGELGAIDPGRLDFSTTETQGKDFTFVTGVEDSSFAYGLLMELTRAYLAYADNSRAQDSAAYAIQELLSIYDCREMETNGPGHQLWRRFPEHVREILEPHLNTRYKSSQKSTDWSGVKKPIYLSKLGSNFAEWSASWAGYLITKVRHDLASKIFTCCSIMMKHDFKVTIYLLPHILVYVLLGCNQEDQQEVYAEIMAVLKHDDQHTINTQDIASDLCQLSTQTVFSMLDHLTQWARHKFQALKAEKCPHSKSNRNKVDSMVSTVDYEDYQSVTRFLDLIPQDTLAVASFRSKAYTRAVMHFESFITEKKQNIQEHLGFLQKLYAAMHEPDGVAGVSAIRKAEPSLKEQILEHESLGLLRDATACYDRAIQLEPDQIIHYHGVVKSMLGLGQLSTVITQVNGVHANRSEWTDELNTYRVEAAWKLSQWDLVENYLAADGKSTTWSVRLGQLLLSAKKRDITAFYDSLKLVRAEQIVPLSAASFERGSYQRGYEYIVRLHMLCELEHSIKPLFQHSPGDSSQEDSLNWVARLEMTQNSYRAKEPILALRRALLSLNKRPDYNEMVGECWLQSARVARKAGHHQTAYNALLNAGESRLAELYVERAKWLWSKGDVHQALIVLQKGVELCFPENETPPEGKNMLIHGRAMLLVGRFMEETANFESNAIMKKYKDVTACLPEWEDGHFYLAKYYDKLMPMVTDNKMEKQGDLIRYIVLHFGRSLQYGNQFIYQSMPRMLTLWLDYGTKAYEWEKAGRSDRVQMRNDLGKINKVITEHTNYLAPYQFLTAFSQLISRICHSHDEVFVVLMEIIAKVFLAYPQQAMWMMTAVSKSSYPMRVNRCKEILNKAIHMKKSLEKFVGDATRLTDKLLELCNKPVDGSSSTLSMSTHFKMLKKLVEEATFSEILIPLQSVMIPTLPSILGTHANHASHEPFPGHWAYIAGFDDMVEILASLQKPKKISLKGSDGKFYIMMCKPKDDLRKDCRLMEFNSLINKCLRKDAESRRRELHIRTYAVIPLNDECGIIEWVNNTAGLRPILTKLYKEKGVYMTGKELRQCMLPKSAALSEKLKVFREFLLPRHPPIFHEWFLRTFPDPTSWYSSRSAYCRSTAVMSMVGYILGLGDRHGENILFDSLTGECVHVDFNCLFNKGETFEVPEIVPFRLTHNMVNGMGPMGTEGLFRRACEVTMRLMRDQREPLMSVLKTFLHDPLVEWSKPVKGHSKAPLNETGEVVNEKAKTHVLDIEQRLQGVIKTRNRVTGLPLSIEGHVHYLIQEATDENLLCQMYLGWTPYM

[18] = Toxicity in NOD-SCID mouse xenografted with human Granta-519 cells assessed as changes in body weight at 25 mg/kg, po qd for 5 days and measured at 2 days after drug treatment cessation; format: organism-based; conditions: in vivo, 120 h, time 5 day
[19] = Toxicity in BALB/c mouse assessed as late stage erythroblasts in bone marrow at 10 mg/kg, po qd for 3 days and measured at 1 day after treatment discontinuation by flow cytometry; format: organism-based; conditions: in vivo, 72 h, time 3 day
[20] = Toxicity in BALB/c mouse assessed as reticulocytes in bone marrow at 10 mg/kg, po qd for 3 days and measured at 4 days after treatment discontinuation; format: organism-based; conditions: in vivo, 72 h, time 3 day
[21] = biological target: Serine/threonine-protein kinase SMG1 (Homo sapiens) (UniProt Q96Q15); test: Inhibition of SMG1 in human Jurkat cell lysates at 0.03 to 0.3 uM in presence of biotinylated ADP by KiNativ profiling based mass spectrometry; format: subcellular; conditions: dose 0.03-0.3 µM
[22] = Clearance in monkey liver microsomes at 1 uM in presence of NADPH by ESI/LC-MS/MS analysis; format: ADME, Macaca mulatta, Microsome; conditions: rhesus monkey, read-out: CLH
[23] = Toxicity in BALB/c mouse assessed as reduction in bone marrow cell viability at 10 mg/kg, po qd for 3 days by trypan blue exclusion assay; format: organism-based; conditions: in vivo, 72 h, time 3 day
[24] = system: Granta-519; test: Antitumor activity against human Granta-519 cells xenografted in NOD-SCID mouse assessed as reduction in tumor volume at 5 mg/kg, po qd for 3 days co-administered with PARP inhibitor, niraparib; format: functional, organism-based; conditions: time 3.0 day
[25] = Toxicity in BALB/c mouse assessed as red blood cells in bone marrow at 10 mg/kg, po qd for 3 days and measured at 4 days after treatment discontinuation; format: organism-based; conditions: in vivo, 72 h, time 3 day
[26] = biological target: Phosphatidylinositol 4-phosphate 3-kinase C2 domain-containing subunit beta (Homo sapiens) (UniProt O00750); test: Inhibition of PIK3C2B in human Jurkat cell lysates at 0.3 uM in presence of biotinylated ADP by KiNativ profiling based mass spectrometry; format: subcellular
Sequence of Phosphatidylinositol 4-phosphate 3-kinase C2 domain-containing subunit beta (Homo sapiens) (O00750 whole entry, the tested form may be a part): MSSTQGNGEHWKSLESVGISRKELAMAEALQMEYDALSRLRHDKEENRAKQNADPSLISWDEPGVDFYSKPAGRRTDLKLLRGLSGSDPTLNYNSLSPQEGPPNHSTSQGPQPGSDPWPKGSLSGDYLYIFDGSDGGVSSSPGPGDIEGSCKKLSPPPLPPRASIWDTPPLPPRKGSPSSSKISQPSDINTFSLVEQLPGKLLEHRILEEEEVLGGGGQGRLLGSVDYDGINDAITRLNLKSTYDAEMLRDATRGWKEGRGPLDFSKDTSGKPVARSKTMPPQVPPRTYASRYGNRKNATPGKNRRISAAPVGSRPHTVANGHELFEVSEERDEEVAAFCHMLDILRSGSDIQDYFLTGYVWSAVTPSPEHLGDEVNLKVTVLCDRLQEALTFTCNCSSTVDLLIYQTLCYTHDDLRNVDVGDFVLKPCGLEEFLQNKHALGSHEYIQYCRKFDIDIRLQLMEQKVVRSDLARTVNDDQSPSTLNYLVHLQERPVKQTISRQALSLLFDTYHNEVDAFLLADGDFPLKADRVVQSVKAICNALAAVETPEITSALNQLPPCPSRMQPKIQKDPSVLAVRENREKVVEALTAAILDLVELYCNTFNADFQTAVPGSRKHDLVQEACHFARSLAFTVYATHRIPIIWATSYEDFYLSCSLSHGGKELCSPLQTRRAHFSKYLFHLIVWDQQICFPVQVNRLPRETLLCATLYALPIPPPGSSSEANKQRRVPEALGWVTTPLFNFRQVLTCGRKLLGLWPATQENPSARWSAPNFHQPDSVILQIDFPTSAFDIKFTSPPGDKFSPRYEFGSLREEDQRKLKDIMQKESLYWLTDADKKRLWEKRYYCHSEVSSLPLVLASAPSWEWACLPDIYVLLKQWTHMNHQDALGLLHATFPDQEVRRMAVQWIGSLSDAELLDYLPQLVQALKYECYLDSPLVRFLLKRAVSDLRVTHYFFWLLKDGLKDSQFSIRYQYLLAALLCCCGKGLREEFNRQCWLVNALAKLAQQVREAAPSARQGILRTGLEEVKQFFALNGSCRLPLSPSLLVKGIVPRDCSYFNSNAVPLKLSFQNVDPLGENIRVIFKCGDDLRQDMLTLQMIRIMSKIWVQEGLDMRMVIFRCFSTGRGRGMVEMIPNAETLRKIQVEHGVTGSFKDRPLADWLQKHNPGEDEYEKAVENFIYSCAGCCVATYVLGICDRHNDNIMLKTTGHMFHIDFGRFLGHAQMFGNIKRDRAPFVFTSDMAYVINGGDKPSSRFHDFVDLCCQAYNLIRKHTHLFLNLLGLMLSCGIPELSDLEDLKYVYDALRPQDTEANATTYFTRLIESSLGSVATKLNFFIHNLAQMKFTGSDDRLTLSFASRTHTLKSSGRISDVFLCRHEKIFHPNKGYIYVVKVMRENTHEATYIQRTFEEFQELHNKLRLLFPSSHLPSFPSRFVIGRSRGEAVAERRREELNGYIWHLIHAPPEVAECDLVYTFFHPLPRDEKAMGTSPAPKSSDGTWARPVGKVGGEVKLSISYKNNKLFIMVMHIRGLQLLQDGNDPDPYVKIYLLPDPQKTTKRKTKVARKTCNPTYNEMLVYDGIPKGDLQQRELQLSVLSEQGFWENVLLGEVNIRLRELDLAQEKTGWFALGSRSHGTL

[27] = Toxicity in NOD-SCID mouse xenografted with human Granta-519 cells assessed as early stage erythroblasts at 30 mg/kg, po qd for 3 days and measured at 2 days after treatment discontinuation by flow cytometry; format: organism-based; conditions: in vivo, 72 h, time 3 day
[28] = biological target: T1, Serine/threonine-protein kinase ATR; test: Inhibition of ATR in gemcitabine-stimulated human LoVo cells assessed as decrease in CHK1 phosphorylation at Ser345 residue; format: cell-based; conditions: lovo
[29] = Toxicity in NOD-SCID mouse xenografted with human Granta-519 cells assessed as reduction in late stage erythroblasts in bone marrow at 10 mg/kg, po qd for 1 day co-administered with PARP inhibitor, niraparib by flow cytometry; format: organism-based; conditions: in vivo, 24 h
[30] = Toxicity in NOD-SCID mouse xenografted with human Granta-519 cells assessed as late stage erythroblasts in bone marrow at 10 mg/kg, po qd for 3 days co-administered with PARP inhibitor, niraparib and measured at 4 days after treatment cessation by flow cytometry; format: organism-based; conditions: in vivo, 72 h, time 3 day
[31] = Toxicity in NOD-SCID mouse xenografted with human Granta-519 cells assessed as red blood cells count at 5 mg/kg, po qd for 3 days and 4 days off intermittent dosing for 3 cycles co-administered with PARP inhibitor, niraparib and measured on day 21; format: organism-based; conditions: in vivo, 504 h, time 21 day
[32] = Toxicity in NOD-SCID mouse xenografted with human Granta-519 cells assessed as changes in body weight at 30 mg/kg, po qd for 3 days and measured at 4 days after drug treatment cessation; format: organism-based; conditions: in vivo, 72 h, time 3 day

## C[C@@H]1COCCN1c1cc([C@]2(O)C[C@H]3CC[C@@H](C2)O3)c2cnn(-c3cc[nH]n3)c2n1 [CAMONSERTIB]
[1]
  hepatocyte CLint at 1 µM: 11 µL/min/1e6 cells
[2]
  bioavailability: 72%
[3]
  clearance: 10.1 mL/min/kg
[4]
  Activity: Active
[5]
  Activity: Toxic
[6]
  clearance: 14 mL/min/kg
[7]
  Activity: Toxic
[8]
  clearance: 1.2 mL/min/kg
[9]
  microsomal CLint at 1 µM: < 11.6 µL/min/mg
[10]
  microsomal CLint at 1 µM: 97 µL/min/mg
[11]
  Activity: Non-Toxic
[12]
  Activity: Non-Toxic
[13]
  Activity: Non-Toxic
[14]
  Activity: Toxic
[15]
  Activity: Toxic
[16]
  Activity: Toxic
[17]
  IC50: 0.9 nM
[18]
  Activity: Non-Toxic
[19]
  Activity: Non-Toxic
[20]
  Activity: Non-Toxic
[21]
  inhibition: Active
[22]
  microsomal CLint at 1 µM: 26 µL/min/mg
[23]
  Activity: Toxic
[24]
  Activity: Active
[25]
  Activity: Non-Toxic
[26]
  inhibition: Active
[27]
  Activity: Non-Toxic
[28]
  IC50: 0.33 nM
[29]
  Activity: Toxic
[30]
  Activity: Non-Toxic
[31]
  Activity: Non-Toxic
[32]
  Activity: Non-Toxic

Reference: ChEMBL document CHEMBL5505970 (J Med Chem, 2024)
